Laboratory results reported in publication PMC9592910, “Tissue distribution and integrated pharmacokinetic properties of major effective constituents of oral Gegen-Qinlian decoction in mice” (Frontiers in Pharmacology, 2022).
Marks after values point to notes of the source that are not given here.

Legend:
Format in all cases: in vivo, Kunming mice
[1] = Pharmacokinetics/tissue distribution of GQD constituents in the colons of mice after oral GQD
Method: (§1) The liver and the colon homogenates were prepared with 10 times (V: W) the volume of ascorbic acid solution (200 μg/ml). Then the homogenates were pretreated as plasma to obtain the tissue samples for LC-MS/MS analysis. Fifty-four Kunming mice were randomly divided into nine groups according to body weight and gender (3 male and three female in each group). […] Then the C-T curves of the constituents in the plasma and the tissue homogenates were respectively drawn and their pharmacokinetic parameters were respectively calculated. […] It should be noted that the pharmacokinetic parameters of a GQD constituent was calculated based on its average concentration in six mice at each time point. The results were expressed as mean ± SD.

[2] = Pharmacokinetics of GQD constituents in the portal vein of mice after oral GQD; conditions: for AUC(0-t): read-out: AUC0–24 h
Method: (§2) Fifty-four Kunming mice were randomly divided into nine groups according to body weight and gender (3 male and three female in each group). Each group was orally administered with water solution (0.2 ml/10 g body weight) of the GQD extract powder at the dosage of 6.1 g/kg body weight. The dosage of GQD extract powder equals to 18 g/kg herbal pieces of GQD, which is equivalent to its clinical dosage. At each designed time point (0.08, 0.25, 0.5, 1, 2, 4, 8, 12, and 24 h) after oral administration, six mice were anesthetized with ether, and blood was collected from the portal vein (about 0.2 ml, aspirated in a 1 ml heparinized syringe) and then the systemic circulation (about 0.2 ml, collected in heparinized tubes after removal of the eyeball) of the mice to prepare plasma samples, and the livers and the colons were removed to prepare respective homogenate. After pretreatment, the concentrations of 19 major constituents of GQD in each sample were measured by the validated LC-MS/MS method (see “2.3”). Then the C-T curves of the constituents in the plasma and the tissue homogenates were respectively drawn and their pharmacokinetic parameters were respectively calculated.
(§3) It should be noted that the pharmacokinetic parameters of a GQD constituent was calculated based on its average concentration in six mice at each time point. The results were expressed as mean ± SD.

[3] = Pharmacokinetics/tissue distribution of GQD constituents in the livers of mice after oral GQD; conditions: for Kp: both sexes
Method: as §1

[4] = Pharmacokinetics of GQD constituents in the systemic circulation of mice after oral GQD; conditions: for half-life / Tmax / Cmax / MRT / AUC(0-t): both, Kunming; for Cmax / MRT / AUC(0-t): oral GQD 6.1 g/kg; for AUC(0-t): read-out: AUC0–24 h
Method: as §2, §3

[5] = mouse, systemic circulation plasma, po, […], systemic circulation plasma, mice, oral GQD […], read-out: T1/2 (converted)
[6] = mouse, systemic circulation plasma, po, […], systemic circulation plasma, mice, oral GQD […], read-out: Tmax
[7] = mouse, systemic circulation plasma, mice
[8] = both, Kunming, mouse, colon (homogenate), po, […], colon, mice, oral GQD extract […], read-out: T1/2 (converted)
[9] = both, Kunming, mouse, colon (homogenate), colon, mice, oral GQD extract 6.1 g/kg
[10] = both, Kunming, mouse, colon (homogenate), colon, mice, oral GQD extract 6.1 g/kg, read-out: Tmax
[11] = colon, mice, oral GQD extract […]
[12] = both, Kunming, mouse, portal vein plasma, po, […], portal vein plasma, mice, oral GQD extract […], read-out: Tmax
[13] = both, Kunming, mouse, portal vein plasma, mice, oral GQD extract 6.1 g/kg
[14] = both, Kunming, mouse, portal vein plasma, mice, oral GQD extract 6.1 g/kg, read-out: T1/2 (converted)
[15] = both, Kunming, mouse, liver (homogenate), po, […], liver, mice, oral GQD extract […], read-out: T1/2 (converted)
[16] = both, Kunming, mouse, liver (homogenate), liver, mice, oral GQD extract 6.1 g/kg
[17] = both, Kunming, mouse, liver (homogenate), liver, mice, oral GQD extract 6.1 g/kg, read-out: Tmax
[18] = liver, mice, oral GQD extract […]
[19] = portal vein plasma, mice, oral GQD extract […]
[20] = both, Kunming, mouse, in vivo, po, […]
[21] = both, Kunming, mouse, in vivo, po, […], T1/2

Row | half-life [1, 8] | Cmax [1, 9] | MRT [1, 9] | Tmax [1, 10] | T1/2 [1, 11] | Tmax [2, 12] | Cmax [2, 13] | MRT [2, 13] | AUC(0-t) [2, 13] | half-life [2, 14] | half-life [3, 15] | Cmax [3, 16] | MRT [3, 16] | Tmax [3, 17] | SMILES | also measured
1 | – | – | – | – | – | – | – | – | – | – | – | – | – | – | COc1cc2c(cc1OC)-c1cc3ccc4c(c3c[n+]1CC2)OCO4 [Epiberberine, epiberberine] | T1/2 ([1]; mouse, in vivo, po, […]): 3.3 h; T1/2 ([2]; mouse, in vivo, po, […]): 5.6 h; AUC0–24 h liv/AUC0–24 h cir ([3]; mouse, in vivo, po): 9.9; AUC0–24 h liv/AUC0–24 h por ([3]; mouse, in vivo, po): 3.8
2 | 240 to 300 min | 1830 ng/g | 7 h | 4 h | 4.4 h | 4 h | 643 ng/mL | 7 h | 5330 ng·h/mL | 282 min | 360 to 420 min | 910 ng/g | 8.6 h | 4 h | CC1(C)[C@@H](O)CC[C@]2(C)[C@H]3C(=O)C=C4[C@@H]5C[C@@](C)(C(=O)O)CC[C@]5(C)CC[C@@]4(C)[C@]3(C)CC[C@@H]12 [Glycyrrhetinic acid, glycyrrhetinic acid] | half-life [4, 5]: ~360 min; Tmax [4, 6]: 240 min; Cmax [4, 7]: 196 ng/mL; MRT [4, 7]: 8.4 h; AUC(0-t) [4, 7]: 2120 ng·h/mL; T1/2 ([4]; systemic circulation plasma, mice, oral GQD […]): 6.2# h; T1/2 [3, 18]: 6.6# h
3 | 180 to 240 min | 2010 ng/g | 4.8 h | 2 h | 3.3 h | 2 h | 77.1 ng/mL | 3.7 h | 422 ng·h/mL | 174 min | 228 min | 148 ng/g | 2.8 h | 1 h | CC1(C)[C@@H](O[C@H]2O[C@H](C(=O)O)[C@@H](O)[C@H](O)[C@H]2O[C@@H]2O[C@H](C(=O)O)[C@@H](O)[C@H](O)[C@H]2O)CC[C@]2(C)[C@H]3C(=O)C=C4[C@@H]5C[C@@](C)(C(=O)O)CC[C@]5(C)CC[C@@]4(C)[C@]3(C)CC[C@@H]12 [Glycyrrhizic acid, glycyrrhizic acid] | –
4 | – | – | – | – | – | – | – | – | – | – | – | – | – | – | O=C1C[C@@H](c2ccc(O[C@@H]3O[C@H](CO)[C@@H](O)[C@H](O)[C@H]3O)cc2)Oc2cc(O)ccc21 [Liquiritin, liquiritin] | half-life ([4]; mouse, in vivo, po, […], T1/2): 90 min; Tmax ([4]; mouse, in vivo, po, […], Tmax): 15 min; Tmax [1, 20]: 0.5 h; half-life [1, 21]: 1170 min; half-life [2, 20]: 150 min; Tmax ([2]; both, Kunming, mouse, in vivo, po, […], Tmax): 0.25 h; Kp ([3]; Kunming, mouse, in vivo, po, AUC0–24 h liv/AUC0–24 h cir): ~5; Kp ([3]; Kunming, mouse, in vivo, po, AUC0–24 h liv/AUC0–24 h por): 2.4; AUC0–24 h liv/AUC0–24 h cir ([3]; both, Kunming, mouse, in vivo, po): 5.1; Tmax [3, 20]: 4 h; half-life [3, 21]: 1180 min
5 | – | – | – | – | – | – | – | – | – | – | – | – | – | – | COc1c(O[C@@H]2O[C@H](C(=O)O)[C@@H](O)[C@H](O)[C@H]2O)cc(O)c2c(=O)cc(-c3ccccc3)oc12 [Wogonoside, wogonoside] | T1/2 ([4]; mouse, in vivo, po, […]): 3.9 h; T1/2 ([2]; mouse, in vivo, po, […]): 2.6 h; AUC0–24 h liv/AUC0–24 h cir ([3]; mouse, in vivo, po): 0.15; AUC0–24 h liv/AUC0–24 h por ([3]; mouse, in vivo, po): 0.03; T1/2 ([3]; mouse, in vivo, po, […]): 16.2 h

Row | SMILES | half-life [1, 8] | Cmax [1, 9] | MRT [1, 9] | Tmax [1, 10] | T1/2 [1, 11] | Tmax [2, 12] | Cmax [2, 13] | MRT [2, 13] | AUC(0-t) [2, 13] | half-life [2, 14] | half-life [3, 15] | Cmax [3, 16] | MRT [3, 16] | Tmax [3, 17] | also measured
6 | COc1cc2c(cc1O)CC[n+]1cc3c(OC)c(OC)ccc3cc1-2 [Jatrorrhizine, jatrorrhizine] | 300 min | 2100 ng/g | 6.2 h | 4 h | – | 4 h | 16.6 ng/mL | 4.8 h | 116 ng·h/mL | 378 min | 144 min | 136 ng/g | 6.6 h | 4 h | half-life [4, 5]: 258 min; Tmax [4, 6]: 4.8 min; Cmax [4, 7]: 10.1 ng/mL; MRT [4, 7]: 3.9 h; AUC(0-t) [4, 7]: 26.3 ng·h/mL
7 | O=C1C[C@@H](c2ccc(O)cc2)Oc2cc(O)ccc21 [Liquiritigenin, liquiritigenin] | – | – | – | – | 3.4 h | – | – | – | – | – | – | – | – | – | Tmax [1, 11]: 4.0 h; T1/2 [2, 19]: 5.9 h; Tmax [2, 19]: 2.0 h; Tmax [3, 18]: 0.25 h
